From patent US20230139171A1 (SITA Information Networking Computing UK Limited, priority 2019, published 2023)
Read-outs that look alike come from different tables or passages of the source.

Tests used:
Format in all cases: cell-based
[1] = biological target: T1, human TLR9 (Homo sapiens, UniProt Q9NR96); assay: TLR9 inhibition reporter assay (HEK-Blue cells, SEAP reporter, ODN2006 stimulation); details: HEK-Blue cells overexpressing human TLR9, SEAP reporter, ODN2006 5 nM
T1 construct: host or cells: HEK-Blue cells
T1 sequence (Q9NR96 26-1032): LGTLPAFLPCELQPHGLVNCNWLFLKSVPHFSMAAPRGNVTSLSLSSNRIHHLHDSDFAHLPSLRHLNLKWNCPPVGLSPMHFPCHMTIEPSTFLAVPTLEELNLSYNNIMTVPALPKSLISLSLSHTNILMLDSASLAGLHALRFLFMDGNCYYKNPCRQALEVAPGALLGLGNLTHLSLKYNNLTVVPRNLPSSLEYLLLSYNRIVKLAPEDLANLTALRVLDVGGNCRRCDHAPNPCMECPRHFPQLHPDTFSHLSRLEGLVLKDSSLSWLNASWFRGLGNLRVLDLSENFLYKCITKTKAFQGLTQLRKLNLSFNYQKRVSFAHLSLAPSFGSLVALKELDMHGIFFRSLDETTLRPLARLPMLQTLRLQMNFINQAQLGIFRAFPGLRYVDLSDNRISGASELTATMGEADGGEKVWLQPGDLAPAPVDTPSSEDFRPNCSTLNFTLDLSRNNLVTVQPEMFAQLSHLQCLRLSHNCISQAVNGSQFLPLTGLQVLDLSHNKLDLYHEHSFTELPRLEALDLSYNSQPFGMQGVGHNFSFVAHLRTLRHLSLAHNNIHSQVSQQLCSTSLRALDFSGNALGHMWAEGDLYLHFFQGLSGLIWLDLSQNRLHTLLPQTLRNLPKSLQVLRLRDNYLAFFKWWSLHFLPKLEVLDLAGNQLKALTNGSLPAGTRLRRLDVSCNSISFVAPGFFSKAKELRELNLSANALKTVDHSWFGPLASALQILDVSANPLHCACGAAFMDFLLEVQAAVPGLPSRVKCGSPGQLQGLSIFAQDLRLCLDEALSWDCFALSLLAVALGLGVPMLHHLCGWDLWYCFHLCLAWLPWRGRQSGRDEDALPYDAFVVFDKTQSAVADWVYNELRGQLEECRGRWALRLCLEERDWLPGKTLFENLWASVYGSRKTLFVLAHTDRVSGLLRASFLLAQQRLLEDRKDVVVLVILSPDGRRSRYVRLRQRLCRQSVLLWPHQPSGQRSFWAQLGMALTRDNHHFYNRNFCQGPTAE
Method: TLR7/8/9 Inhibition Reporter Assays
HEK-Blue™-cells (Invivogen) overexpressing human TLR7, TLR8 or TLR9 receptors were used for screening inhibitors of these receptors using an inducible SEAP (secreted embryonic alkaline phosphatase) reporter gene under the control of the IFN-β minimal promoter fused to five NF-κB and AP-1-binding sites. Briefly, cells are seeded into Greiner 384 well plates (15000 cells per well for TLR7, 20,000 for TLR8 and 25,000 for TLR9) and then treated with test compounds in DMSO to yield a final dose response concentration range of 0.05 nM-50 μM. After a 30 minute compound pre-treatment at room temperature, the cells are then stimulated with a TLR7 ligand (gardiquimod at a final concentration of 7.5 μM), TLR8 ligand (R848 at a final concentration of 15.9 μM) or TLR9 ligand (ODN2006 at a final concentration of 5 nM) to activate NF-κB and AP-1 which induce the production of SEAP. After a 22 hour incubation at 37° C., 5% CO2, SEAP levels are determined with the addition of HEK-Blue™ Detection reagent (Invivogen), a cell culture medium that allows for detection of SEAP, according to manufacturer's specifications. The percent inhibition is determined as the % reduction in the HEK-Blue signal present in wells treated with agonist plus DMSO alone compared to wells treated with a known inhibitor.

[2] = biological target: T2, human TLR7 (Homo sapiens, UniProt Q9NYK1); assay: TLR7 inhibition reporter assay (HEK-Blue cells, SEAP reporter, gardiquimod stimulation); details: gardiquimod 7.5 μM
T2 construct: host or cells: HEK-Blue cells
T2 sequence (Q9NYK1 27-1049): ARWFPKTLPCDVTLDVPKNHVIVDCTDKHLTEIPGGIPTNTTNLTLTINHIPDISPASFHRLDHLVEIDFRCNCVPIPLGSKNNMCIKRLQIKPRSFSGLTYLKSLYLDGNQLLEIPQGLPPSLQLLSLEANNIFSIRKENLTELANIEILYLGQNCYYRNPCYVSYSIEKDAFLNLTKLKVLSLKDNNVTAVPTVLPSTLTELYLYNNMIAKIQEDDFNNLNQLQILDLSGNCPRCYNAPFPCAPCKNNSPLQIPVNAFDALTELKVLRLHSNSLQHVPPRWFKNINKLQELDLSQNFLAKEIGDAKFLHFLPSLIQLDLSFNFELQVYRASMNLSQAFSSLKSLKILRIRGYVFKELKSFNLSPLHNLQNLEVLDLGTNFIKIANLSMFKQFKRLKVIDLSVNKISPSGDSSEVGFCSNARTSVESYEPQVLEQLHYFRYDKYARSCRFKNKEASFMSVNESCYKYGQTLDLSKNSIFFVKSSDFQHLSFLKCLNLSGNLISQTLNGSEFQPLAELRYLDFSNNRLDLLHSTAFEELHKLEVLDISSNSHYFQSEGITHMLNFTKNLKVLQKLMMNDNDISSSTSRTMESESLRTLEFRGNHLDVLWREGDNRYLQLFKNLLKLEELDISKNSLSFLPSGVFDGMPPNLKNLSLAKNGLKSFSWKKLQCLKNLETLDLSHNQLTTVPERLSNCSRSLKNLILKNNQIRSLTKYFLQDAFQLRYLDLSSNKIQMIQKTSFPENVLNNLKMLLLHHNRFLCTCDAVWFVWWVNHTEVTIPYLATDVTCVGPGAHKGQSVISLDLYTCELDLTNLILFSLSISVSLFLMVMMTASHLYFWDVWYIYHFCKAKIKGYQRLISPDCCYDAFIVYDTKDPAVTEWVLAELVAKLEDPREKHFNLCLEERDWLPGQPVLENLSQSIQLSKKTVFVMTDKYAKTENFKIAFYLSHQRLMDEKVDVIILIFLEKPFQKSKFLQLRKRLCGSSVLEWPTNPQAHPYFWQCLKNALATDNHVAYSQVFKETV
Outline: (§1)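 Compound treatment: 30 min, RT, 0.05 nM–50 μM final. Agonist: TLR7 gardiquimod 7.5 μM; TLR8 R848 15.9 μM; TLR9 ODN2006 5 nM. Incubation 22 h, 37 °C, 5% CO2. Readout SEAP, HEK-Blue Detection.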

[3] = biological target: T3, human TLR8 (Homo sapiens, UniProt Q9NR97); assay: TLR8 inhibition reporter assay (HEK-Blue cells, SEAP reporter, R848 stimulation); details: R848 15.9 μM
T3 construct: host or cells: HEK-Blue cells
T3 sequence (Q9NR97 27-1041): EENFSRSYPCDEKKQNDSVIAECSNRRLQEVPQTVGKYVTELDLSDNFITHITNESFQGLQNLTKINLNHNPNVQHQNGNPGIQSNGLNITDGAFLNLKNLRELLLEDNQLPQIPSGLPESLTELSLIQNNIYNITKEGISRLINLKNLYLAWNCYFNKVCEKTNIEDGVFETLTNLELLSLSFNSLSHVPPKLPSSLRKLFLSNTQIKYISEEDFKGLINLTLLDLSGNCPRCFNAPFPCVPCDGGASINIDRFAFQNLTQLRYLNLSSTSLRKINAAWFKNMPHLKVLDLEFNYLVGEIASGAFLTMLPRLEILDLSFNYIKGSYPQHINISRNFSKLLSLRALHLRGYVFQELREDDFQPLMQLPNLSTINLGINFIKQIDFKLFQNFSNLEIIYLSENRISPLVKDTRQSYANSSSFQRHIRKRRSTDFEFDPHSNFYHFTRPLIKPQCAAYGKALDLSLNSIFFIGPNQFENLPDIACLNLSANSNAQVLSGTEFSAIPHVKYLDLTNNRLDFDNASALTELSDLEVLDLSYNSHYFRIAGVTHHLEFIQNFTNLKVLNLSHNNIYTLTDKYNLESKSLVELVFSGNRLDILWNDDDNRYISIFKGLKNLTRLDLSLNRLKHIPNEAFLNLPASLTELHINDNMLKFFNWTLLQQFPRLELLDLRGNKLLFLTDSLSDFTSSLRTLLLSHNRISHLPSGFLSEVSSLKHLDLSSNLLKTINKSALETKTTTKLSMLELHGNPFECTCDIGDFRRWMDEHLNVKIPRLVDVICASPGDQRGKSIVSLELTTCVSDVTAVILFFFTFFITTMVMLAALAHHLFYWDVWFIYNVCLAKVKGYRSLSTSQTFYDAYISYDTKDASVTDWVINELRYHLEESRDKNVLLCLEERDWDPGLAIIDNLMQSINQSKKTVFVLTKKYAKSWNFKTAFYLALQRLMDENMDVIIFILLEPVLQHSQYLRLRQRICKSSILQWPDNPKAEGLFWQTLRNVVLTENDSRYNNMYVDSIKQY
Outline: as §1

[4] = HEK-Blue cells overexpressing human TLR7, SEAP reporter, read-out: TLR7 IC50
[5] = HEK-Blue cells overexpressing human TLR8, SEAP reporter, read-out: TLR8 IC50

Row | Structure (SMILES) | IC50 [1] [nM] | IC50 [2, 4] [nM] | IC50 [3, 5] [nM] | IC50 ([2]; TLR7 IC50, HEK-Blue cells overexpressing human TLR7, SEAP reporter) [nM] | IC50 ([3]; TLR8 IC50, HEK-Blue cells overexpressing human TLR8, SEAP reporter) [nM]
1 | COc1cc(-c2c(C(C)C)c3nc(C4CCN(CC(F)(F)F)CC4)sc3n2CC(F)(F)F)cn2ncnc12 [Example 9, 6-isopropyl-5-(8-methoxy-[1,2,4]triazolo[1,5-a]pyridin-6-yl)-4-(2,2,2-trifluoroethyl)-2-(1-(2,2,2-trifluoroethyl)piperidin-4-yl)-4H-pyrrolo[3,2-d]thiazole] | 4160 | – | – | – | –
2 | Cc1cc(-c2[nH]c3sc(N4CCNC[C@H]4C)nc3c2C(C)C)cn2ncnc12 [Example 311, (R)-6-isopropyl-5-(8-methyl-[1,2,4]triazolo[1,5-a]pyridin-6-yl)-2-(2-methylpiperazin-1-yl)-4H-pyrrolo[3,2-d]thiazole] | 18800 | 1400 | – | – | –
3 | Cc1cc(-c2[nH]c3sc(N4CCN(C5CCC5)C[C@H]4C)nc3c2C(C)C)cn2ncnc12 [Example 362, (R)-2-(4-cyclobutyl-2-methylpiperazin-1-yl)-6-isopropyl-5-(8-methyl-[1,2,4]triazolo[1,5-a]pyridin-6-yl)-4H-pyrrolo[3,2-d]thiazole] | 25100 | – | – | – | –
4 | Cc1cc(-c2[nH]c3sc(C(=O)N4CCOCC4)nc3c2C(C)C)cn2ncnc12 [Example 398, (6-isopropyl-5-(8-methyl-[1,2,4]triazolo[1,5-a]pyridin-6-yl)-4H-pyrrolo[3,2-d]thiazol-2-yl)(morpholino)methanone] | – | 137 | 365 | – | –
5 | Cc1cc(-c2[nH]c3sc(C(=O)NCC4(S(C)(=O)=O)CC4)nc3c2C(C)C)cn2ncnc12 [Example 399, 6-isopropyl-5-(8-methyl-[1,2,4]triazolo[1,5-a]pyridin-6-yl)-N-((1-(methylsulfonyl)cyclopropyl)methyl)-4H-pyrrolo[3,2-d]thiazole-2-carboxamide] | – | 126 | 132 | – | –
6 | Cc1c(-c2[nH]c3sc(CN4CC5(C4)CS(=O)(=O)C5)nc3c2C(C)C)cn2ncnc2c1C [Example 403, 6-((5-(7,8-dimethyl-[1,2,4]triazolo[1,5-a]pyridin-6-yl)-6-isopropyl-4H-pyrrolo[3,2-d]thiazol-2-yl)methyl)-2-thia-6-azaspiro[3.3]heptane 2,2-dioxide] | – | – | – | 26.9 | 156
7 | Cc1c(-c2[nH]c3sc(CN4CC5(COC5)C4)nc3c2C(C)C)cn2ncnc2c1C [Example 408, 6-((5-(7,8-dimethyl-[1,2,4]triazolo[1,5-a]pyridin-6-yl)-6-isopropyl-4H-pyrrolo[3,2-d]thiazol-2-yl)methyl)-2-oxa-6-azaspiro[3.3]heptane] | – | 47.4 | 168 | – | –

The next lines start with results.

Row | IC50 [1] [nM] | IC50 [2, 4] [nM] | IC50 [3, 5] [nM] | Structure (SMILES) | IC50 ([2]; TLR7 IC50, HEK-Blue cells overexpressing human TLR7, SEAP reporter) [nM] | IC50 ([3]; TLR8 IC50, HEK-Blue cells overexpressing human TLR8, SEAP reporter) [nM]
8 | – | 35.1 | 297 | Cc1c(-c2[nH]c3sc(CNCC(N)=O)nc3c2C(C)C)cn2ncnc2c1C [Example 402, 2-(((5-(7,8-dimethyl-[1,2,4]triazolo[1,5-a]pyridin-6-yl)-6-isopropyl-4H-pyrrolo[3,2-d]thiazol-2-yl)methyl)amino)acetamide] | – | –
9 | – | 43.6 | 124 | Cc1c(-c2[nH]c3sc(CN4CC5(CCOCC5)C4)nc3c2C(C)C)cn2ncnc2c1C [Example 404, 2-((5-(7,8-dimethyl-[1,2,4]triazolo[1,5-a]pyridin-6-yl)-6-isopropyl-4H-pyrrolo[3,2-d]thiazol-2-yl)methyl)-7-oxa-2-azaspiro[3.5]nonane] | – | –
10 | – | 2.74 | 142 | Cc1c(-c2[nH]c3sc(CN4CCNC(=O)C4)nc3c2C(C)C)cn2ncnc2c1C [Example 406, 4-((5-(7,8-dimethyl-[1,2,4]triazolo[1,5-a]pyridin-6-yl)-6-isopropyl-4H-pyrrolo[3,2-d]thiazol-2-yl)methyl) piperazin-2-one] | – | –
11 | – | 28.6 | 279 | Cc1c(-c2[nH]c3sc(CN4CCOCC4)nc3c2C(C)C)cn2ncnc2c1C [Example 407, 4-((5-(7,8-dimethyl-[1,2,4]triazolo[1,5-a]pyridin-6-yl)-6-isopropyl-4H-pyrrolo[3,2-d]thiazol-2-yl)methyl)morpholine] | – | –
